Earlier results, collected in US20170224835A1, “Antibody Drug Conjugates” (priority 2015, published 2017).
Where two headings read alike, the source gives them in different places.

Tests used:
[1] = in vitro

Structure (SMILES) | cytotoxicity / cell killing compared with other anthracyclines [1] | efficacy in in vivo tumor models (in vivo tumor models) | cytotoxicity / cell killing compared with other anthracyclines ([1]; listed as PNU (159682))
COc1cccc2c1C(=O)c1c(O)c3c(c(O)c1C2=O)C[C@@](O)(C(=O)CO)C[C@@H]3O[C@H]1C[C@H](N2CCO[C@H](OC)C2)[C@H](O)[C@H](C)O1 [Nemorubicin, (8S,10S)-6,8,11-trihydroxy-10-((2R,4S,5S,6S)-5-hydroxy-4-((S)-2-methoxymorpholino)-6-methyltetrahydro-2H-pyran-2-yloxy)-8-(2-hydroxyacetyl)-1-methoxy-7,8,9,10-tetrahydrotetracene-5,12-dione] | more potent cell killing property |  | 
COc1cccc2c1C(=O)c1c(O)c3c(c(O)c1C2=O)C[C@@](O)(C(=O)CO)C[C@@H]3O[C@H]1C[C@H]2[C@H](O[C@@H]3[C@@H](OC)OCCN32)[C@H](C)O1 [PNU-159682, 3′-deamino-3″,4′-anhydro-[2″(S)-methoxy-3″(R)-oxy-4″-morpholinyl]doxorubicin] | significantly more cytotoxic than Nemorubicin | effective | more cytotoxic than nemorubicin and doxorubicin
